# US6184401A, “Alpha-fluoro alkynoic acids with anticonvulsant activity” (priority 1999, dated 2001)
# Experiments:
# hepatotoxicity = conditions: effect of the 2-fluoro substituent; cited from earlier work
# [1] = anticonvulsant; cited from earlier work
# [2] = tested on: animals (seizure induced by pentylenetetrazole); assay: PTZ convulsion test (anticonvulsant activity); format: in vivo; conditions: intraperitoneal, sodium salt, PTZ 65 mg/kg s.c. after 15 minutes
# Description: The anti-convulsive activity of the compounds of the invention was determined by the PTZ convulsion test (E. Swinyard et al., 1969, "Laboratory Evaluation of Antiepileptic Drugs, Review of Laboratory Methods," Epilepsia 10, 107-119; E. Swinyard, J. Woodhead, in Antiepileptic Drugs, 2nd ed., D. Woodbury, J. Penry, C. Pippenger, eds., Raven Press, New York, 1982, 111-126). Briefly, animals were dosed intraperitoneally with the sodium salt of the compound to be tested, and then challenged after 15 minutes with a subcutaneous injection of pentylenetetrazole (65 mg/kg). The percentage of animals that were protected from seizure (defined as at least one episode of continuous seizure activity lasting at least five seconds) is reported in Table 1 as "Anticonvulsant Activity %".
# fetuses = assay: Teratogenic potential: exencephaly in fetuses of treated pregnant animals; format: in vivo; conditions: sodium salt, injected day 8 of gestation, fetuses examined day 18
# Description: The teratogenic potential of the compounds was determined by injecting pregnant animals on day 8 of gestation with the sodium salt of the compound to be tested, and by examining the fetuses on day 18 of gestation (H. Nau, 1985, Toxicol. Appl. Pharmacol., 80, 243-250; H. Nau, W. Loscher, 1986, Fund. Appl. Toxicol., 6, 669).
# [3] = tested on: newborns of women taking VPA; conditions: newborns of women taking VPA during pregnancy; cited from earlier work
# [4] = in vivo; cited from earlier work
# animals = format: in vivo; conditions: dose 1.5 mmol/kg, sodium salt, after 15 minutes
# Description: The sedative activity of the compounds was determined by the "Rotorod" test (Dunham, Miya, 1957, J. Am. Pharm. Assoc., 46, 208-209). Animals were dosed with the sodium salt of the compound to be tested, and after 15 minutes they were placed on the ROTOROD apparatus (Rotorod, Ugobasile, Italy). The percentage of animals that fell from the rod is reported as "Sedative Activity %" in Table 1.
# mice = conditions: cited from earlier work
# children on polytherapy = conditions: young children on polytherapy; cited from earlier work
structure (smiles),measurement,setting,value
C=CCC(F)(CCC)C(=O)O (centres unmarked) [2-fluoro-2-propyl-4-pentenoic acid],hepatotoxicity relative to 2-propyl-4-pentenoic acid,hepatotoxicity,reduce hepatotoxicity relative to 2-propyl-4-pentenoic acid
CCCC(F)(CCC)C(=O)O [2-fluoro-2-propylpentanoic acid],potency relative to VPA,[1],less potent than VPA
"O=C(O)C(CCC(F)(F)F)CCC(F)(F)F [5,5,5-trifluoro-2-(3,3,3-trifluoropropyl) pentanoic acid]",potency relative to VPA,[1],less potent than VPA
"CCCC(CCC(F)(F)F)C(=O)O (centres unmarked) [5,5,5-trifluoro-2-n-propyl pentanoic acid]",potency relative to VPA,[1],less potent than VPA
"CC#CCC(F)(CCC)C(=O)O (centres unmarked) [Example 3, 2-fluoro-2-n-propyl-4-hexynoic acid]",Anticonvulsant Activity % (percentage of animals protected from seizure),[2]; dose 1.5 mmol/kg,20%
same,Teratogenic Activity % (percent of fetuses exhibiting exencephaly),fetuses; dose 3.0 mmol/kg,2%
"CC#CCC(F)(CCCCC)C(=O)O (centres unmarked) [Example 5, 2-fluoro-2-n-pentyl-4-hexynoic acid]",Anticonvulsant Activity % (percentage of animals protected from seizure),[2]; dose 1.5 mmol/kg,80%
same,Teratogenic Activity % (percent of fetuses exhibiting exencephaly),fetuses; dose 1.5 mmol/kg,1%
"CC#CCC(F)(CCCCCCC)C(=O)O (centres unmarked) [Example 7, 2-fluoro-2-n-heptyl-4-hexynoic acid]",Anticonvulsant Activity % (percentage of animals protected from seizure),[2]; dose 0.5 mmol/kg,60%
same,Teratogenic Activity % (percent of fetuses exhibiting exencephaly),fetuses; dose 1.0 mmol/kg,0%
"CC#CCC(F)(CCCCCCCC)C(=O)O (centres unmarked) [Example 8, 2-fluoro-2-n-octyl-4-hexynoic acid]",Anticonvulsant Activity % (percentage of animals protected from seizure),[2]; dose 0.25 mmol/kg,40%
same,Teratogenic Activity % (percent of fetuses exhibiting exencephaly),fetuses; dose 0.5 mmol/kg,0%
"CCCC(CCC)C(=O)O [VPA, 2-propylpentanoic acid]",risk of spina bifida,[3],1-2%
same,duration of action,[4],short duration of action
same,serious side effects,[4],"sedation, potentially fatal hepatotoxicity, and teratogenicity"
same,Sedative Activity % (percentage of animals that fell from the rod),animals,40%
same,Anticonvulsant Activity % (percentage of animals protected from seizure),[2]; dose 1.0 mmol/kg,60%
same,neural tube defects,mice,induce neural tube defects in mice
same,Teratogenic Activity % (percent of fetuses exhibiting exencephaly),fetuses; dose 3.0 mmol/kg,50%
same,VPA-induced hepatic fatality rate,children on polytherapy,1/500
